Data: PubChem BioAssay AID1963854 (Molecular Pharmacology Branch, DTP, NCI, 2024)

Test system: 186277-243-T-J2-PDC complex spheroid viability
Assay: Anticancer human tumor 186277-243-T-J2-PDC patient-derived colon adenocarcinoma cell line growth inhibition [POLQ]
Details: for IC50: curve of first compound; for viability, T/C: stronger effect = lower value
How it was run: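 Three-cell-type spheroids modelling solid tumor plus stroma served as the readout system; POL inhibitors were tested individually and in combination, concentration ranges set by clinical Cmax where known.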

[1] = second compound 0.0316 µM, first compound 0.00316 µM
[2] = second compound 0.0316 µM, first compound 0.01 µM
[3] = second compound 0.0316 µM, first compound 0.0316 µM
[4] = second compound 0.0316 µM, first compound 0.1 µM
[5] = second compound 0.0316 µM, first compound 0.316 µM
[6] = second compound 0.0316 µM, first compound 1 µM
[7] = second compound 0.1 µM, first compound 0.00316 µM
[8] = second compound 0.1 µM, first compound 0.01 µM
[9] = second compound 0.1 µM, first compound 0.0316 µM
[10] = second compound 0.1 µM, first compound 0.1 µM
[11] = second compound 0.1 µM, first compound 0.316 µM
[12] = second compound 0.1 µM, first compound 1 µM
[13] = second compound 0.316 µM, first compound 0.00316 µM
[14] = second compound 0.316 µM, first compound 0.01 µM
[15] = second compound 0.316 µM, first compound 0.0316 µM
[16] = second compound 0.316 µM, first compound 0.1 µM
[17] = second compound 0.316 µM, first compound 0.316 µM
[18] = second compound 0.316 µM, first compound 1 µM
[19] = second compound 1 µM, first compound 0.00316 µM
[20] = second compound 1 µM, first compound 0.01 µM
[21] = second compound 1 µM, first compound 0.0316 µM
[22] = second compound 1 µM, first compound 0.1 µM
[23] = second compound 1 µM, first compound 0.316 µM
[24] = second compound 1 µM, first compound 1 µM
[25] = second compound 3.16 µM, first compound 0.00316 µM
[26] = second compound 3.16 µM, first compound 0.01 µM
[27] = second compound 3.16 µM, first compound 0.0316 µM
[28] = second compound 3.16 µM, first compound 0.1 µM
[29] = second compound 3.16 µM, first compound 0.316 µM
[30] = second compound 3.16 µM, first compound 1 µM
[31] = second compound 10 µM, first compound 0.00316 µM
[32] = second compound 10 µM, first compound 0.01 µM
[33] = second compound 10 µM, first compound 0.0316 µM
[34] = second compound 10 µM, first compound 0.1 µM
[35] = second compound 10 µM, first compound 0.316 µM
[36] = second compound 10 µM, first compound 1 µM
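Further: spheroids exposed to compounds for seven days.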
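Wherever viability, T/C is given: 100% = DMSO vehicle control viability.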

CCc1c2c(nc3ccc(O)cc13)-c1cc3c(c(=O)n1C2)COC(=O)[C@]3(O)CC + Cc1cccc(N(C)C(=O)C2C(O)CCN2c2nc(C)cc(C(F)(F)F)c2C#N)c1
IC50 (second compound 0.0316 µM): 9.32 nM
IC50 (second compound 0.1 µM): 10.2 nM
IC50 (second compound 0.316 µM): 10.8 nM
IC50 (second compound 1 µM): 10.1 nM
IC50 (second compound 3.16 µM): 9.58 nM
IC50 (second compound 10 µM): 5.53 nM
viability, T/C [1]: 69%
viability, T/C [2]: 48.5%
viability, T/C [3]: 27%
viability, T/C [4]: 12.7%
viability, T/C [5]: 10.5%
viability, T/C [6]: 7.92%
viability, T/C [7]: 74%
viability, T/C [8]: 50.3%
viability, T/C [9]: 25.7%
viability, T/C [10]: 12.8%
viability, T/C [11]: 9.86%
viability, T/C [12]: 7.71%
viability, T/C [13]: 66.5%
viability, T/C [14]: 51.6%
viability, T/C [15]: 27.9%
viability, T/C [16]: 13.8%
viability, T/C [17]: 9.55%
viability, T/C [18]: 8.34%
viability, T/C [19]: 73%
viability, T/C [20]: 50.3%
viability, T/C [21]: 24%
viability, T/C [22]: 12.7%
viability, T/C [23]: 10.4%
viability, T/C [24]: 7.86%
viability, T/C [25]: 59.1%
viability, T/C [26]: 50.1%
viability, T/C [27]: 24.3%
viability, T/C [28]: 12.1%
viability, T/C [29]: 9.42%
viability, T/C [30]: 6.8%
viability, T/C [31]: 58.6%
viability, T/C [32]: 40.8%
viability, T/C [33]: 21%
viability, T/C [34]: 9.71%
viability, T/C [35]: 8.72%
viability, T/C [36]: 6.68%

COc1cccc(OCCCN)c1-c1cc(Nc2cnc(C#N)cn2)n[nH]1 + COC1C(OC(N)=O)C(O)C(Oc2ccc3c(O)c(NC(=O)c4ccc(O)c(CC=C(C)C)c4)c(=O)oc3c2C)OC1(C)C
IC50 (second compound 0.0316 µM): < 3.16 nM
IC50 (second compound 0.1 µM): < 3.16 nM
IC50 (second compound 0.316 µM): < 3.16 nM
IC50 (second compound 1 µM): < 3.16 nM
IC50 (second compound 3.16 µM): < 3.16 nM
IC50 (second compound 10 µM): < 3.16 nM
viability, T/C [1]: 8.14%
viability, T/C [2]: 5.13%
viability, T/C [3]: 4.48%
viability, T/C [4]: 4.86%
viability, T/C [5]: 4.49%
viability, T/C [6]: 5.84%
viability, T/C [7]: 9.53%
viability, T/C [8]: 5.58%
viability, T/C [9]: 4.93%
viability, T/C [10]: 4.32%
viability, T/C [11]: 4.26%
viability, T/C [12]: 5.58%
viability, T/C [13]: 9.04%
viability, T/C [14]: 5.2%
viability, T/C [15]: 5.3%
viability, T/C [16]: 4.89%
viability, T/C [17]: 4.61%
viability, T/C [18]: 5.48%
viability, T/C [19]: 8.31%
viability, T/C [20]: 6.44%
viability, T/C [21]: 4.79%
viability, T/C [22]: 4.46%
viability, T/C [23]: 4.72%
viability, T/C [24]: 5.47%
viability, T/C [25]: 7.66%
viability, T/C [26]: 5.09%
viability, T/C [27]: 4.84%
viability, T/C [28]: 4.62%
viability, T/C [29]: 4.32%
viability, T/C [30]: 5.85%
viability, T/C [31]: 6.16%
viability, T/C [32]: 5.21%
viability, T/C [33]: 4.7%
viability, T/C [34]: 4.65%
viability, T/C [35]: 5.39%
viability, T/C [36]: 6.57%

CNCc1ccc(-c2[nH]c3cc(F)cc4c3c2CCNC4=O)cc1 + COC1C(OC(N)=O)C(O)C(Oc2ccc3c(O)c(NC(=O)c4ccc(O)c(CC=C(C)C)c4)c(=O)oc3c2C)OC1(C)C
IC50 (second compound 0.0316 µM): > 10000 nM
IC50 (second compound 0.1 µM): > 10000 nM
IC50 (second compound 0.316 µM): > 10000 nM
IC50 (second compound 1 µM): > 10000 nM
IC50 (second compound 3.16 µM): > 10000 nM
IC50 (second compound 10 µM): > 10000 nM
viability, T/C [3]: 99%
viability, T/C [4]: 96.1%
viability, T/C [5]: 91%
viability, T/C [6]: 85.8%
viability, T/C (second compound 0.0316 µM, first compound 3.16 µM): 99.3%
viability, T/C (second compound 0.0316 µM, first compound 10 µM): 116%
viability, T/C [9]: 102%
viability, T/C [10]: 96.3%
viability, T/C [11]: 106%
viability, T/C [12]: 105%
viability, T/C (second compound 0.1 µM, first compound 3.16 µM): 106%
viability, T/C (second compound 0.1 µM, first compound 10 µM): 99%
viability, T/C [15]: 110%
viability, T/C [16]: 99.8%
viability, T/C [17]: 102%
viability, T/C [18]: 93.1%
viability, T/C (second compound 0.316 µM, first compound 3.16 µM): 115%
viability, T/C (second compound 0.316 µM, first compound 10 µM): 115%
viability, T/C [21]: 87.1%
viability, T/C [22]: 107%
viability, T/C [23]: 101%
viability, T/C [24]: 104%
viability, T/C (second compound 1 µM, first compound 3.16 µM): 102%
viability, T/C (second compound 1 µM, first compound 10 µM): 101%
viability, T/C [27]: 87%
viability, T/C [28]: 104%
viability, T/C [29]: 108%
viability, T/C [30]: 99.6%
viability, T/C (second compound 3.16 µM, first compound 3.16 µM): 109%
viability, T/C (second compound 3.16 µM, first compound 10 µM): 112%
viability, T/C [33]: 103%
viability, T/C [34]: 105%
viability, T/C [35]: 104%
viability, T/C [36]: 93.1%
viability, T/C (second compound 10 µM, first compound 3.16 µM): 104%
viability, T/C (second compound 10 µM, first compound 10 µM): 112%
